# From US20110300529A1, “DETECTION OF IFI16 IN BODY FLUIDS” (NoToPharm srl, priority 2008, published 2011)
# Key:
# [1] = test system: Human Keratinocyte monolayers; assay: Western blot analysis of extracellular IFI16 in supernatants of cells undergoing cell death; type: cell-based; settings: 16 h after treatment, TCA-concentrated supernatant, immunoblotting
# Procedure: (§1) Human Keratinocyte monolayers were UVB-irradiated at different doses (200, 400, and 800 J/m^2 respectively), treated with 2 μM Doxorubicin (Doxo) and 80 μM Etoposide (VP-16), or left untreated. At 16 h after treatment, the supernatant was collected and separated for determination of extracellular IFI16, while the remaining cells were lysed for determination of the intracellular cleaved form of PARP (determination of undergoing cell death). Collected supernatants were concentrated with TCA 25% as described in Example 4. […]
# Supernatants of human primary keratinocytes cultured in serum-free medium (Epilife, Cascade Biologics, USA) were subjected to precipitation with trichloroacetic acid (TCA). Precipitated protein were analyzed by immunoblotting. […]
# (§2) Migrated proteins were transferred to nitrocellulose. The membranes were blocked in TBS/0.05% Tween20/5% BSA and extracellular IFI16 was detected by incubation of the membrane bearing surnatants samples with anti-IFI16 mouse monoclonal antibody (clone 1G7, Santa Cruz, Calif., USA). The intracellular cleaved form of PARP was detected by incubation of the membrane bearing cell extract samples by rabbit anti-PARP cleaved antibody (GTX24830, GeneTex, CA, USA). […]
# [2] = test system: Human Keratinocyte monolayers; assay: Intracellular cleaved form of PARP (determination of undergoing cell death) by immunoblotting; type: cell-based; settings: 16 h after treatment, cell lysate
# Procedure: as §1, with “4. An equal amount of total cellular protein per sample and an equal volume of concentrated supernatants were fractionated on SDS-PAGE (7.5% of NEXT GEL Amresco, OH, USA) and transferred to a nitrocellulose membrane (Biorad, CA, USA).” for “4.”
# As control of the undergoing cell death induced by the treatment with UVB-irradiation and Doxo or VP-16, also the intracellular PARP cleavage was determined in the exposed keratinocyte. […]
# as §2
Structure (SMILES),presence of extracellular IFI16 in supernatants ([1]; 2 μM Doxorubicin),cell death as demonstrated by PARP cleavage ([2]; 2 μM Doxorubicin),presence of extracellular IFI16 in supernatants ([1]; 80 μM Etoposide),cell death as demonstrated by PARP cleavage ([2]; 80 μM Etoposide)
COc1cccc2c1C(=O)c1c(O)c3c(c(O)c1C2=O)C[C@@](O)(C(=O)CO)C[C@@H]3O[C@H]1C[C@H](N)[C@H](O)[C@H](C)O1 [Doxorubicin],not observed,chemically-induced cell death,–,–
COc1cc([C@@H]2c3cc4c(cc3[C@@H](O[C@@H]3O[C@@H]5CO[C@@H](C)O[C@H]5[C@H](O)[C@H]3O)[C@H]3COC(=O)[C@H]23)OCO4)cc(OC)c1O [Etoposide],–,–,not observed,chemically-induced cell death
